Data published in PubChem BioAssay (NCI).
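Exposure lasted 48 hours, with cells grown in 96-well plates and compounds tested at five concentrations. At the GI50, growth is halved. TGI denotes the concentration required for complete inhibition of growth.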

Tests used:
Assay in all cases: inhibition of tumour cell growth, NCI panel, 48 h
[1] = system: OVCAR-4 ovarian
[2] = system: A549 NSCLC
[3] = system: A498 renal
[4] = system: HCT-116 colon
[5] = system: HCT-15 colon
[6] = system: SK-MEL-28 melanoma
[7] = system: K-562 leukemia
[8] = system: MOLT-4 leukemia
[9] = system: TK-10 renal
[10] = system: CCRF-CEM leukemia

SMILES	GI50 [1]	TGI [1]	GI50 [2]	TGI [2]	GI50 [3]	TGI [3]	GI50 [4]	TGI [4]	GI50 [5]	TGI [5]	GI50 [6]	TGI [6]	GI50 [7]	TGI [7]	GI50 [8]	TGI [8]	GI50 [9]	TGI [9]	GI50 [10]	TGI [10]
CCC[CH2][Sn]1([CH2]CCC)[O]CC(COc2c(Cl)cc(Cl)cc2Cl)[O]1 (centres undefined)	1.91 µM	3.76 µM	5.15 µM	17.7 µM	1.31 µM	2.65 µM	1.67 µM	3.03 µM	1.66 µM	3.31 µM	1.39 µM	2.82 µM								
COc1ccc(-c2cc(-c3ccc(Nc4ccnc5cc(Cl)ccc45)cc3)nc(N3CCOCC3)n2)cc1	1.83 µM	3.57 µM			27.5 µM	86.7 µM	2.96 µM	> 100 µM					6.18 µM	> 100 µM						
O=C(N/N=C/c1ccc(O)cc1O)c1cccnc1	0.692 µM	11.9 µM	4.66 µM	> 100 µM	11.5 µM	84.1 µM	0.876 µM	> 100 µM	0.614 µM	> 100 µM	3.59 µM	62.6 µM			3.1 µM	> 100 µM	2.52 µM	> 100 µM	0.971 µM	> 100 µM
COc1cc(/C=C/C(=O)C(C(=O)/C=C/c2ccc(OC(=O)CCNC34CC5CC(CC(C5)C3)C4)c(OC)c2)C(=O)CCNC23CC4CC(CC(C4)C2)C3)ccc1OC(=O)CCNC12CC3CC(CC(C3)C1)C2 (centres undefined)	8.89 µM	57.1 µM	2.86 µM	10.1 µM	3.47 µM	13.6 µM	2.94 µM	10.7 µM	3.21 µM	7.51 µM	1.67 µM	4.28 µM	1.99 µM	4.97 µM			3.77 µM	18.7 µM	1.65 µM	4.12 µM
Cc1cc(NCCCCNc2ccnc3cc(Cl)ccc23)nc(Nc2ccc(C(=O)N3CCCCC3)cc2)n1	1.6 µM	5.52 µM	2.51 µM	5.47 µM	1.61 µM	3.72 µM			1.28 µM	3.13 µM	1.68 µM	3.37 µM			1.71 µM	7.13 µM	2.11 µM	4.13 µM	0.608 µM	7.55 µM
C[P+](C)(C)c1ccccc1		> 100 µM		> 100 µM				> 100 µM		> 100 µM		> 100 µM		> 100 µM		> 100 µM		> 100 µM		> 100 µM
COc1cc2c(cc1OC)C1Cc3cc(OC)c(OC)cc3N1CC2 (centres undefined)		57.7 µM		79.9 µM		> 100 µM		> 100 µM				> 100 µM		> 100 µM		> 100 µM		50.5 µM		> 100 µM
O=C1c2ccc3c4ccccc4n(-c4ccccc4)c3c2C(=O)N1c1ccc(Cl)cc1		> 100 µM		> 100 µM		> 100 µM		> 100 µM		> 100 µM				> 100 µM		> 100 µM		> 100 µM		> 100 µM
O=C1C2[C@@H](C(=O)N1c1ccc(Br)cc1)C13C(=CC2([N+](=O)[O-])[C@@H]2C(=O)N(c4ccc(Br)cc4)C(=O)[C@@H]21)c1ccccc1N3c1ccccc1 (some centres undefined)				> 100 µM						> 100 µM		> 100 µM		> 100 µM		> 100 µM		> 100 µM		> 100 µM
CC(=O)[CH-]C(=O)c1ccccc1.CC(=O)[CH-]C(=O)c1ccccc1.O=S(=O)([O-])c1cc([O-])c2c([O-])cc(S(=O)(=O)[O-])cc2c1.[Na+].[Ti+4]	68.6 µM	> 100 µM	> 100 µM	> 100 µM	> 100 µM	> 100 µM	> 100 µM	> 100 µM	> 100 µM	> 100 µM	> 100 µM	> 100 µM	> 100 µM	> 100 µM	34.3 µM	> 100 µM				
COc1cc(OC)c2sc(-c3ccc(-n4cncc4-c4cc(OC)c(OC)c(OC)c4)cc3)nc2c1	3.25 µM	> 100 µM	6.16 µM	> 100 µM	1.83 µM	> 100 µM	3.92 µM	> 100 µM	5.48 µM	> 100 µM			3.83 µM	> 100 µM	4.24 µM	> 100 µM	9.4 µM	> 100 µM	3.95 µM	> 100 µM
NC(CCc1ncc(C(=O)O)s1)C(=O)O (centres undefined)				> 100 µM		> 100 µM		> 100 µM		> 100 µM		> 100 µM		> 100 µM		> 100 µM		> 100 µM		> 100 µM
Cc1ccc2[c](c1)[Sn]([c]1ccccc1)([c]1ccccc1)[c]1cc(C)ccc1N2C	41.6 µM	> 100 µM	> 100 µM	> 100 µM			20.9 µM	> 100 µM	36.9 µM	> 100 µM	64.5 µM	> 100 µM					> 100 µM	> 100 µM		
COc1cc(/C=C2\CCC/C(=C\c3ccc(OCC4CO4)c(OC)c3)C2=O)ccc1OCC1CO1 (centres undefined)			2.14 µM	5.09 µM	3.62 µM	10.1 µM	1.85 µM	6.01 µM	2.04 µM	4.59 µM	1.81 µM	3.43 µM	3.46 µM	> 100 µM	2.91 µM	34.1 µM	4.04 µM	17.6 µM	2.5 µM	> 100 µM
Cc1sc2c(c1C)C(c1ccc(Cl)cc1)=N[C@@H](CC(=O)Nc1ccc(OCCOCCOCCOCCNc3cccc4c3C(=O)N(C3CCC(=O)NC3=O)C4=O)cc1)c1nnc(C)n1-2 (some centres undefined)	< 0.0174 µM	> 100 µM	0.338 µM	> 100 µM	0.013 µM	0.0962 µM		> 100 µM	0.394 µM	> 100 µM	16.8 µM	> 100 µM	0.293 µM	> 100 µM			0.189 µM	> 43.7 µM	< 0.0222 µM	> 100 µM
CC12CCC(=O)N1c1cccnc1N2 (centres undefined)		> 100 µM		> 100 µM		> 100 µM				> 100 µM		> 100 µM		> 100 µM		> 100 µM		> 100 µM		> 100 µM
Cc1ccc(N2C(=O)N(c3ccc(C)cc3)C3(SC=NN3C)C2=O)cc1 (centres undefined)		> 100 µM		> 100 µM		> 100 µM		> 100 µM				> 100 µM		> 100 µM		> 100 µM		> 100 µM		> 100 µM
